The test deals with T1, active p38 alpha enzyme (Upstate Biotechnology) (Homo sapiens, UniProt Q16539).
T1 construct: purchased Upstate Biotechnology
The experiment in a line: p38α biochemical assay (ATP turnover, luminescent detection, Cambrex PKlight). The settings on record: p38α biochemical assay, Table 1 Biological Activity. Summed up:
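In this kinase reaction, p38α used MapkapK2 as phosphorylation substrate at low ATP (1.4 uM final) over 2 hours at 30C, and activity was followed as ATP turnover by luminescence.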

T1 sequence (Q16539 whole entry): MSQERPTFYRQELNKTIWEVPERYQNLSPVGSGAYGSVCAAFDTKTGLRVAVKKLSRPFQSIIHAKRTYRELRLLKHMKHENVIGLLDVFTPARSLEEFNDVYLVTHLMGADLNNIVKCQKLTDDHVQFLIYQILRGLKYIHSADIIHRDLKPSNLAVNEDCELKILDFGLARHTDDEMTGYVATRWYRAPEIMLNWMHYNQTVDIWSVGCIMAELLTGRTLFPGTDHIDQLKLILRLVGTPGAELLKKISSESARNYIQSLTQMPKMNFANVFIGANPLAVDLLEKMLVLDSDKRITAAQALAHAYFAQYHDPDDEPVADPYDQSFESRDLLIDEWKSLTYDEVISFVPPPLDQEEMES

By IC50 is commonly meant the concentration at which inhibition is half-maximal. A low value points to inhibition by little substance. With `COc1cc(C(=O)NCc2onc(-c3ccc(F)cc3)c2-c2nc(C(=O)NC(C)C)cs2)cc(Cl)n1` [Example 716], the IC50 is greater than 1000 nM.

Compound `CC(C)NC(=O)c1csc(-c2c(-c3ccc(F)cc3)noc2CNC(C=O)c2ccc3cc(O)ccc3c2)n1` (centres unmarked) [Example 717] returned an IC50 greater than 1000 nM.

Regarding `CC(C)NC(=O)c1csc(-c2c(-c3ccc(F)cc3)noc2CNC(=O)c2c(O)ccc3ccccc23)n1` [Example 718], the half-inhibitory concentration (IC50) is greater than 1000 nM.

As for `CC(C)NC(=O)c1csc(-c2c(-c3ccc(F)cc3)noc2CNC(=O)c2cc3ccccc3cc2O)n1` [Example 719], the IC50 is greater than 1000 nM.

In turn, `CC(C)NC(=O)c1csc(-c2c(-c3ccc(F)cc3)noc2CNC(=O)c2ccc3ccccc3c2O)n1` [Example 720] gave an IC50 greater than 1000 nM.

`CC(C)NC(=O)c1csc(-c2c(-c3ccc(F)cc3)noc2CNC(=O)c2ccc3cccc(O)c3n2)n1` [Example 721]: the IC50 is greater than 1000 nM.

`CC(C)NC(=O)c1csc(-c2c(-c3ccc(F)cc3)noc2CNC(=O)C(C)NC(=O)OC(C)(C)C)n1` (centres unmarked) [Example 722] registered a 50% inhibitory concentration (IC50) greater than 1000 nM.

With `CC(C)NC(=O)c1csc(-c2c(-c3ccc(F)cc3)noc2CNC(=O)C(C)NC(=O)OC(C)(C)C)n1` (centres unmarked) [Example 723], the IC50 is greater than 1000 nM.

`CC(C)NC(=O)c1csc(-c2c(-c3ccc(F)cc3)noc2CNC(=O)c2ccccc2C(F)(F)F)n1` [Example 724] showed a concentration for half-maximal inhibition (IC50) greater than 1000 nM.

`CC(C)NC(=O)c1csc(-c2c(-c3ccc(F)cc3)noc2CNC(=O)CCc2nc3ccccc3[nH]2)n1` [Example 725] yielded an IC50 greater than 1000 nM.

Turning to `CC(C)NC(=O)c1csc(-c2c(-c3ccc(F)cc3)noc2CNC(=O)c2cccc(Cl)c2Cl)n1` [Example 726], the concentration for half-maximal inhibition (IC50) was greater than 1000 nM.

`CC(C)NC(=O)c1csc(-c2c(-c3ccc(F)cc3)noc2CNC(=O)c2ccc(Cl)cc2Cl)n1` [Example 727] registered a half-maximal inhibitory concentration (IC50) greater than 1000 nM.

Turning to `CC(C)NC(=O)c1csc(-c2c(-c3ccc(F)cc3)noc2CNC(=O)c2cc(Cl)ccc2Cl)n1` [Example 728], the IC50 was greater than 1000 nM.

Consider `CC(C)NC(=O)c1csc(-c2c(-c3ccc(F)cc3)noc2CNC(=O)c2cc(F)c(F)c(O)c2F)n1` [Example 729], for which the IC50 was greater than 1000 nM.

`CC(C)NC(=O)c1csc(-c2c(-c3ccc(F)cc3)noc2CNC(=O)/C=C/c2ccc3c(c2)OCO3)n1` [Example 730] came in with an IC50 greater than 1000 nM.

The compound `Cc1ccc(C(=O)CCC(=O)NCc2onc(-c3ccc(F)cc3)c2-c2nc(C(=O)NC(C)C)cs2)cc1` [Example 731] showed an IC50 greater than 1000 nM.

`CCCCCc1ccc(C(=O)NCc2onc(-c3ccc(F)cc3)c2-c2nc(C(=O)NC(C)C)cs2)cc1` [Example 732] gave a concentration for half-maximal inhibition (IC50) greater than 1000 nM.

`CC(C)NC(=O)c1csc(-c2c(-c3ccc(F)cc3)noc2CNC(=O)c2cc(F)c(F)cc2Cl)n1` [Example 733]: the IC50 was greater than 1000 nM.

Compound `CC(C)NC(=O)c1csc(-c2c(-c3ccc(F)cc3)noc2CNC(=O)c2cc(F)c(Cl)cc2F)n1` [Example 734] came in with a half-inhibitory concentration (IC50) greater than 1000 nM.

The compound `CCN(CC)c1ccc(C(=O)NCc2onc(-c3ccc(F)cc3)c2-c2nc(C(=O)NC(C)C)cs2)cc1` [Example 735] came in with a concentration for half-maximal inhibition (IC50) greater than 1000 nM.

Take `COc1cc(/C=C/C(=O)NCc2onc(-c3ccc(F)cc3)c2-c2nc(C(=O)NC(C)C)cs2)ccc1O` [Example 736]: the IC50 is greater than 1000 nM.

`COc1ccc(/C=C/C(=O)NCc2onc(-c3ccc(F)cc3)c2-c2nc(C(=O)NC(C)C)cs2)cc1O` [Example 737] registered an IC50 greater than 1000 nM.

In the case of `CCCCOc1ccc(C(=O)NCc2onc(-c3ccc(F)cc3)c2-c2nc(C(=O)NC(C)C)cs2)cc1` [Example 738], the IC50 was greater than 1000 nM.

In turn, `CC(C)NC(=O)c1csc(-c2c(-c3ccc(F)cc3)noc2CNC(=O)c2cc3cc(Cl)ccc3o2)n1` [Example 739] came in with an IC50 greater than 1000 nM.

`COc1ccc([N+](=O)[O-])c(C(=O)NCc2onc(-c3ccc(F)cc3)c2-c2nc(C(=O)NC(C)C)cs2)c1` [Example 740] returned a concentration for half-maximal inhibition (IC50) greater than 1000 nM.

In the case of `COc1cc(C(=O)NCc2onc(-c3ccc(F)cc3)c2-c2nc(C(=O)NC(C)C)cs2)cc(OC)c1O` [Example 741], the IC50 was greater than 1000 nM.

`CC(C)NC(=O)c1csc(-c2c(-c3ccc(F)cc3)noc2CNC(=O)c2ccccc2-c2ccccc2)n1` [Example 742] registered an IC50 greater than 1000 nM.

Compound `CC(C)NC(=O)c1csc(-c2c(-c3ccc(F)cc3)noc2CNC(=O)c2cccc(Br)c2)n1` [Example 743] gave a half-maximal inhibitory concentration (IC50) greater than 1000 nM.

For `CC(C)NC(=O)c1csc(-c2c(-c3ccc(F)cc3)noc2CNC(=O)c2ccc(Br)cc2)n1` [Example 744], the concentration for half-maximal inhibition (IC50) was greater than 1000 nM.

In turn, `CC(C)NC(=O)c1csc(-c2c(-c3ccc(F)cc3)noc2CNC(=O)c2cccc(Cl)c2[N+](=O)[O-])n1` [Example 745] gave a concentration for half-maximal inhibition (IC50) greater than 1000 nM.

Regarding `CC(C)NC(=O)c1csc(-c2c(-c3ccc(F)cc3)noc2CNC(=O)c2cc([N+](=O)[O-])ccc2Cl)n1` [Example 746], the concentration for half-maximal inhibition (IC50) is greater than 1000 nM.

`CC(C)NC(=O)c1csc(-c2c(-c3ccc(F)cc3)noc2CNC(=O)c2ccc([N+](=O)[O-])cc2Cl)n1` [Example 747]: the IC50 was no more than 1000 nM.

The compound `CC(C)NC(=O)c1csc(-c2c(-c3ccc(F)cc3)noc2CNC(=O)c2ccc(Cl)cc2[N+](=O)[O-])n1` [Example 748] showed a concentration for half-maximal inhibition (IC50) greater than 1000 nM.

The compound `CC(C)NC(=O)c1csc(-c2c(-c3ccc(F)cc3)noc2CNC(=O)c2ccc(Cl)c([N+](=O)[O-])c2)n1` [Example 749] registered an IC50 greater than 1000 nM.

For the compound `CC(C)NC(=O)c1csc(-c2c(-c3ccc(F)cc3)noc2CNC(=O)c2cc(Cl)ccc2[N+](=O)[O-])n1` [Example 750], the concentration for half-maximal inhibition (IC50) was greater than 1000 nM.

The compound `CC(C)NC(=O)c1csc(-c2c(-c3ccc(F)cc3)noc2CNC(=O)c2cccc(Br)n2)n1` [Example 751] yielded an IC50 greater than 1000 nM.

Regarding `CC(C)NC(=O)c1csc(-c2c(-c3ccc(F)cc3)noc2CNC(=O)c2cncc(Br)c2)n1` [Example 752], the IC50 is greater than 1000 nM.

As to `CC(C)NC(=O)c1csc(-c2c(-c3ccc(F)cc3)noc2CNC(=O)c2cc(F)c(F)cc2[N+](=O)[O-])n1` [Example 753], the 50% inhibitory concentration (IC50) is greater than 1000 nM.

`CC(C)NC(=O)c1csc(-c2c(-c3ccc(F)cc3)noc2CNC(=O)Cc2ccc(C(F)(F)F)cc2)n1` [Example 754] displayed a concentration for half-maximal inhibition (IC50) greater than 1000 nM.

As to `CC(C)Cc1ccc(C(C)C(=O)NCc2onc(-c3ccc(F)cc3)c2-c2nc(C(=O)NC(C)C)cs2)cc1` (centres unmarked) [Example 755], the IC50 is greater than 1000 nM.

`CC(C)NC(=O)c1csc(-c2c(-c3ccc(F)cc3)noc2CNC(=O)c2cc(Cl)c(O)c(Cl)c2)n1` [Example 756] showed an IC50 greater than 1000 nM.

With `CC(C)NC(=O)c1csc(-c2c(-c3ccc(F)cc3)noc2CNC(=O)c2c(F)c(F)c(F)c(F)c2F)n1` [Example 757], the half-inhibitory concentration (IC50) is greater than 1000 nM.

`COc1cc(OC)c(C(=O)NCc2onc(-c3ccc(F)cc3)c2-c2nc(C(=O)NC(C)C)cs2)c(OC)c1` [Example 758]: the IC50 is greater than 1000 nM.

Turning to `COc1cc(OC)c(C(=O)NCc2onc(-c3ccc(F)cc3)c2-c2nc(C(=O)NC(C)C)cs2)cc1OC` [Example 759], the IC50 was greater than 1000 nM.

With `COc1cc(C(=O)NCc2onc(-c3ccc(F)cc3)c2-c2nc(C(=O)NC(C)C)cs2)cc(OC)c1OC` [Example 760], the half-maximal inhibitory concentration (IC50) is greater than 1000 nM.

In turn, `COc1ccc(C(=O)NCc2onc(-c3ccc(F)cc3)c2-c2nc(C(=O)NC(C)C)cs2)c(OC)c1OC` [Example 761] gave an IC50 greater than 1000 nM.

The compound `CC(C)NC(=O)c1csc(-c2c(-c3ccc(F)cc3)noc2CNC(=O)c2ccccc2Cc2ccccc2)n1` [Example 762] registered an IC50 greater than 1000 nM.

The compound `CC(C)NC(=O)c1csc(-c2c(-c3ccc(F)cc3)noc2CNC(=O)c2cccc(Oc3ccccc3)c2)n1` [Example 763] showed an IC50 greater than 1000 nM.

`CC(C)NC(=O)c1csc(-c2c(-c3ccc(F)cc3)noc2CNC(=O)c2ccccc2Oc2ccccc2)n1` [Example 764]: the IC50 is greater than 1000 nM.

`CC(C)NC(=O)c1csc(-c2c(-c3ccc(F)cc3)noc2CNC(=O)c2ccc(Oc3ccccc3)cc2)n1` [Example 765]: the IC50 was greater than 1000 nM.

On to `CC(C)NC(=O)c1csc(-c2c(-c3ccc(F)cc3)noc2CNC(=O)c2ccc(-c3ccc(O)cc3)cc2)n1` [Example 766], for which the concentration for half-maximal inhibition (IC50) is greater than 1000 nM.

As to `Cc1cc(C(=O)NCc2onc(-c3ccc(F)cc3)c2-c2nc(C(=O)NC(C)C)cs2)ccc1Br` [Example 767], the 50% inhibitory concentration (IC50) is greater than 1000 nM.

Compound `Cc1ccc(C(=O)NCc2onc(-c3ccc(F)cc3)c2-c2nc(C(=O)NC(C)C)cs2)cc1Br` [Example 768] yielded a half-maximal inhibitory concentration (IC50) greater than 1000 nM.

As to `CC(C)NC(=O)c1csc(-c2c(-c3ccc(F)cc3)noc2CNC(=O)Cc2ccc(Br)cc2)n1` [Example 769], the IC50 is greater than 1000 nM.

`CC(C)NC(=O)c1csc(-c2c(-c3ccc(F)cc3)noc2CNC(=O)C2CCCN2C(=O)OC(C)(C)C)n1` (centres unmarked) [Example 770] registered an IC50 greater than 1000 nM.

As for `CC(C)NC(=O)c1csc(-c2c(-c3ccc(F)cc3)noc2CNC(=O)/C=C/c2ccccc2C(F)(F)F)n1` [Example 771], the IC50 was greater than 1000 nM.

`CCOc1ccc2ccccc2c1C(=O)NCc1onc(-c2ccc(F)cc2)c1-c1nc(C(=O)NC(C)C)cs1` [Example 772] gave an IC50 greater than 1000 nM.

Compound `CC(C)NC(=O)c1csc(-c2c(-c3ccc(F)cc3)noc2CNC(=O)C(NC(=O)OC(C)(C)C)C(C)C)n1` (centres unmarked) [Example 773] displayed an IC50 greater than 1000 nM.

As to `CC(C)NC(=O)c1csc(-c2c(-c3ccc(F)cc3)noc2CNC(=O)C(NC(=O)OC(C)(C)C)C(C)C)n1` (centres unmarked) [Example 774], the half-maximal inhibitory concentration (IC50) was greater than 1000 nM.

Consider `CC(C)NC(=O)c1csc(-c2c(-c3ccc(F)cc3)noc2CNC(=O)CCc2cccc(C(F)(F)F)c2)n1` [Example 775], for which the 50% inhibitory concentration (IC50) is greater than 1000 nM.

Turning to `CC1=NN(c2ccc(C(=O)NCc3onc(-c4ccc(F)cc4)c3-c3nc(C(=O)NC(C)C)cs3)cc2)C(=O)C1` [Example 776], the IC50 was greater than 1000 nM.

`Cc1nc(Br)sc1C(=O)NCc1onc(-c2ccc(F)cc2)c1-c1nc(C(=O)NC(C)C)cs1` [Example 777] showed an IC50 greater than 1000 nM.

The record behind these values is US20060252807A1, “Novel ortho-terphenyl inhibitors of p38 kinase and methods of treating inflammatory disorders” (Kalypsys, Inc., priority 2005, published 2006).
